Paper PMC6814738, “Bacterial MgrB peptide activates chemoreceptor Fpr3 in mouse accessory olfactory system and drives avoidance behaviour” (Nature Communications, 2019)

Biological target: T1, mouse Fpr3 (Fpr-rs1) (Mus musculus, UniProt O08790)
T1 construct: expressed in transfected cells; host or cells: HEK293T (DSMZ # ACC-635), transient transfection with jetPEI
T1 sequence (O08790 1-351): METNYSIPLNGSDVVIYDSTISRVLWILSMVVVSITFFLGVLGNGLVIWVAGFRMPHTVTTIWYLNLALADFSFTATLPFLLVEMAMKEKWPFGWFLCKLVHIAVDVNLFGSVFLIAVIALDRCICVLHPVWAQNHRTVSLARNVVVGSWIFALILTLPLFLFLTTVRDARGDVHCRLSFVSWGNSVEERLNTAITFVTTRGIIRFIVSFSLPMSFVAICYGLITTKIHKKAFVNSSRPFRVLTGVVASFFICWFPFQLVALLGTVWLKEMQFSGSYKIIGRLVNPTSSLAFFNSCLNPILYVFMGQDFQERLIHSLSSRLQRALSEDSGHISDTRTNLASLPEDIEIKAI
Test: Heterologous expression / high-throughput Ca2+ imaging agonist screen and sequence selectivity of Fpr3 (Fig. 1a, 2c-e, 2g, 2i)
Format: cell-based
Details: mean of n = 3 experiments in triplicate (n = 5 for f-MKKFRW), Fpr3 + Gα16 HEK293T, Fluo-4/AM, FLIPR, buffer C1 pH 7.2, mock 0.059-0.060
Method: An Fpr3 gene subcloned from genomic DNA of C57BL/6J mice into pcDNA3.1 (Invitrogen) was used in heterologous experiments[21],[80]. HEK293T (DSMZ # ACC-635) cells were seeded at 20–30% confluence on poly-D-lysine-coated (10 µg/ml in PBS) black 96-well µCLEAR-Plates (Greiner Bio-One). Cells were transfected 24 h later using jetPEI™ (Polyplus-transfection SA) according to the manufacturer’s protocol for 96-well transfections. For Ca^2+ imaging experiments, 0.125 µg of DNA plasmid encoding Fpr3 were cotransfected with equal amounts of a plasmid encoding Gα16, a promiscuous G protein α-subunit. Ca^2+ signals to agonist stimulation were recorded 48 h post transfection using the Ca^2+ indicator dye Fluo-4/AM (Molecular Probes) and a fluorescence imaging plate reader (FLIPR) system (Molecular Devices). Cotransfection of a plasmid encoding Gα16 with an empty vector used to subclone Fpr3 gave no agonist-evoked Ca^2+ responses.
We used custom-made peptides with a length of 6–21 amino acids to screen for agonists. Sequences of fMet peptides were designed according to motifs present at the N-termini of 15,125 specific bacterial proteins as annotated in UniProt. Peptides were chemically synthesised, purified, and verified by mass spectroscopy (MALDI-TOF) by commercial suppliers. Purity of all peptides was >95%. Source, sequence and purity of each peptide are listed in Supplementary Data 1. Lyophilised peptides were routinely dissolved in the Ca^2+ imaging assay buffer C1 (130 mM NaCl, 10 mM HEPES, 5 mM KCl, 2 mM CaCl2, 5 mM glucose, pH 7.2) as 0.2–1 mM stock solutions and kept in small aliquots at −20 °C until use. […] The sequences of these peptides exist in proteins from the following bacterial strains[21]: Psychromonas ingrahamii that belongs to a marine ice water microbial community, Desulfotomaculum reducens that is found in deep freshwater lakes, and Pseudomonas grimontii, a plant pathogen. As mice are unlikely to encounter these strains in their natural habitat, these findings are probably not of biological relevance.

Row | Substance | Ca2+ response, mean (3 µM) | Ca2+ response, mean (30 µM)
1 | f-MPQLDT [synthesized fMet peptide] | 0.060 ∆F/F | 0.058 ∆F/F
2 | f-MTHQTH [synthesized fMet peptide] | 0.064 ∆F/F | 0.077 ∆F/F
3 | f-MKTSIR [synthesized fMet peptide] | 0.055 ∆F/F | 0.049 ∆F/F
4 | f-MAYPFQ [synthesized fMet peptide] | 0.059 ∆F/F | 0.061 ∆F/F
5 | f-MNPITL [synthesized fMet peptide] | 0.053 ∆F/F | 0.062 ∆F/F
6 | f-MLKIIL [synthesized fMet peptide] | 0.057 ∆F/F | 0.057 ∆F/F
7 | f-MPKLNR [synthesized fMet peptide] | 0.048 ∆F/F | 0.033 ∆F/F
8 | f-MKKFLL [synthesized fMet peptide] | 0.052 ∆F/F | 0.050 ∆F/F
9 | f-MFIYYCK [synthesized fMet peptide] | 0.053 ∆F/F | 0.042 ∆F/F
10 | f-MKKHRW [synthesized fMet peptide] | 0.061 ∆F/F | 0.054 ∆F/F
11 | f-MLNKKKRGN [synthesized fMet peptide] | 0.056 ∆F/F | 0.058 ∆F/F
12 | f-MLFKYL [synthesized fMet peptide] | 0.053 ∆F/F | 0.056 ∆F/F
13 | f-MKKIML [synthesized fMet peptide] | 0.050 ∆F/F | 0.055 ∆F/F
14 | f-MKNFKG [synthesized fMet peptide, bacterial signal peptide fragment] | 0.065 ∆F/F | 0.052 ∆F/F
15 | f-MNIFTT [synthesized fMet peptide] | 0.059 ∆F/F | 0.065 ∆F/F
16 | f-MKKFYS [synthesized fMet peptide] | 0.058 ∆F/F | 0.056 ∆F/F
17 | f-MKFCTA [synthesized fMet peptide] | 0.034 ∆F/F | 0.080 ∆F/F
18 | f-MAQDIISTI [synthesized fMet peptide] | 0.079 ∆F/F | 0.075 ∆F/F
19 | f-MINKKI [synthesized fMet peptide] | 0.058 ∆F/F | 0.045 ∆F/F
20 | f-MKKYKRLLL [synthesized fMet peptide] | 0.074 ∆F/F | 0.065 ∆F/F
21 | f-MVPISI [synthesized fMet peptide] | 0.048 ∆F/F | 0.044 ∆F/F
22 | f-MAMKKL [synthesized fMet peptide] | 0.058 ∆F/F | 0.059 ∆F/F
23 | f-MKKLLNKIV [synthesized fMet peptide] | 0.056 ∆F/F | 0.054 ∆F/F
24 | f-MKKNLV [synthesized fMet peptide] | 0.052 ∆F/F | 0.053 ∆F/F
25 | f-MEFVAKLFK [synthesized fMet peptide] | 0.071 ∆F/F | 0.062 ∆F/F
